Data: patent publication US9796676B2, “Honeybee repellents and uses thereof” (Inscent, Inc., priority 2013, dated 2017)

Experiments:
[1] = cited from earlier work
[2] = tested on: Apis mellifera Carniolan foraging worker honeybees; assay: Choice test in a free-flight box apparatus; type: in vivo; conditions: for P (probability that a honeybee will return to a test dish, nP divided by n): control likelihood without compound 47.5%; for nP (number of tests a honeybee returned to a preferred test dish): free-flight box, 2 μL of 0.05-0.5% compound on filter papers under honey dish
Text: To determine whether living honeybees will choice to move towards a source of a candidate compound, these compounds will be assayed using a choice test in a free-flight box apparatus.
All tests will be done in a free-flight box apparatus. The apparatus comprises a 244 cm long×46 cm deep×30 cm high clear plastic box including two equally-sized independent testing chambers, each with 10 cm diameter air inlets that admit filtered room air, separated by a smaller central chamber with a screened air outlet to each testing chamber. Air can be pulled through the sealed box via a 10 cm diameter duct from the air outlet using an AQE Fume Fighter 500 fume extractor (BPA Air Quality Solutions, LLC, Charleston, S.C.), which removes the test odors using activated charcoal and HEPA filters. The box is housed in an environmentally controlled room with overhead illumination timed to correspond to the current ambient light cycle including 2 additional sets of lights timed to approximate crepuscular lighting conditions. The bottom of the apparatus will be lined with clean absorbent paper marked with a 4×9 grid pattern, forming 12 cm×12 cm squares with marked coordinates.
Apis mellifera Carniolan foraging worker honeybees will be obtained from a local apiary (typically 60 bees per shipment). Thirty honeybees will be put into each testing chamber and will be allowed to acclimate for 24 hours with food and water freely available. At the beginning of each test day all food will be removed from the test chamber, but water will be continually available throughout all tests. For each test, approximately 0.3 g of organic, raw orange blossom honey will be added to each clean small plastic weigh boat (Cole-Palmer). The honey boats will be placed in small plastic culture dishes, which will be distributed in the marked squares in the chambers. The positions of the dishes on the grid for a set of trials will be chosen to avoid the bees' preferred resting area so that they will have to find the food actively, but the same dish positions will be maintained for a given set of trials. We will use seven dishes of honey: six to which the bees will have access and a seventh that will have a screened lid. The honey in each boat will be weighed on an analytical balance before and after the test, with the screened sample as a control for evaporative loss. The fume extractor will be left off during the experimental trails, and will be turned on to clear the air after the test dishes are covered and removed from the chamber at the end of each trial.
Based on the observation that bees tend to return to dishes in the same position where they have fed before, each set of trials with each group of bees began with “Pattern Identification” tests to see which dishes lose the most weight, reflecting the most feeding. Once bees are consuming an acceptable amount in 10-15 min, typically in 1-2 trials, a set of test compound trials will begin. The test compound will be pipetted onto pieces of filter paper placed on the dish bottom below the boat containing a fresh, weighed honey sample so that the test compound will be inaccessible to the bees. We used 2 μL of a candidate compound at a concentration of 0.05-0.5%, in Triton X-100 or paraffin oil, on each of four pieces of filter paper per dish. The test-solution dishes will be set at the same positions as the one or two dishes favored in the preceding Pattern Identification trial. To eliminate interference from the solvent, the other dishes without the test substance will contain the same volume of the appropriate solvent on filter papers as the test solution dishes. The bees will be allowed to feed for 10-15 minutes. Bee movements will be recorded by a small, wide-angle digital video camcorder (HD Hero 960; GoPro, Halfmoon Bay, Calif.) placed on a tripod in front of the test chamber. […]

OBP2 = assay: Fluorescent-quench ligand-protein-binding assay (OBP2 binding); design: species or system Apis mellifera
Text: To identify a honeybee repellent disclosed herein, candidate compounds were screened based upon the fact that 2-heptanone is an established repellent of bees. 2-heptanone is thought to mediate its behavioral response through binding to a specific odorant-binding protein called OBP2. […] Such assays are generally known in the art. See, e.g., Briand, et al., Ligand-Binding Properties and Structural Characterization of a Novel Rat Odorant-Binding Protein Variant, Eur. J. Biochem. 267(10): 3079-3089 (2000); Briand, et al., Ligand Binding and Physico-Chemical Properties of ASP2, A Recombinant Odorant-Binding Protein From Honeybee (Apis mellifera L.), Eur. J. Biochem. 268(3): 752-760 (2001); Briand, et al., Characterization of a Chemosensory Protein (ASP3c) from Honeybee (Apis mellifera L.) as a Brood Pheromone Carrier, Eur. J. Biochem. 269(18): 4586-4596 (2002), each of which is hereby incorporated by reference in its entirety.

[3] = tested on: Apis mellifera Carniolan foraging worker honeybees; assay: Proboscis extension response (PER) assay with bees conditioned to 2-heptanone; type: in vivo; conditions: 0.5% compound in Triton X-100/water on filter paper, 4 s exposure; only bees giving PER with 2-heptanone and not with water or 15% Triton X-100 controls counted
Procedure: To determine whether a living honeybee can recognize a candidate compound, these compounds were tested using a proboscis extension response (PER) assay using classical conditioning approaches. Proboscis extension response conditioning is a case of appetitive learning, in which bees learn to associate odor stimuli with sucrose reward in the laboratory. In this case, bees were conditioned to produce a PER to 2-heptanone as the conditioned stimulus and a sugar reward as the unconditioned stimulus. These trained bees were then exposed to an odor pulse of a candidate compound to test whether a candidate compound would also produce a PER. If the candidate compound “mimics” 2-heptanone then the honeybee will extend its proboscis.
For conditioning procedures, Apis mellifera Carniolan foraging worker honeybees were obtained from a local apiary (typically 60 bees per shipment). The honeybees were held overnight in insect cages with food and water freely available, in an environmentally controlled room on a light cycle similar to the ambient cycle at the time of the assay.
For conditioning procedures, all tests were done in an odorant delivery apparatus set inside a fume hood. The apparatus comprised a set of open-ended, horizontal, 3 cm diameter by 10 cm long plastic tubes. Each tube was designed where a honeybee could be positioned at the distal end of a tube, with the opening at the other end of the tube located proximal to an inlet of the fume hood. To deliver an odorant, room air was pumped by a diaphragm pump through a particle filter via 0.25 inch plastic tubing at approximately 0.7 m/sec. The air flow passes into the headspace above an odorant (0.5% [v/v] 2-heptanone dissolved in odorless light paraffin oil) contained in a 100 mL bottle. The headspace air then passes through another plastic tube to a manifold of 4-way valves, each of which was attached near the proximal end of a plastic tube containing a bee. Each bee was exposed separately for a desired time period to the odorant by opening and closing the appropriate valve. When each valve was closed, the odor was flushed away immediately by the continuous fume hood air stream.
To train a honeybee to respond to a conditioned and unconditioned stimuli, bees were placed, without anesthesia, in individual 1.5 mL micro-centrifuge holding tubes and held overnight without access to food or water. The holding tubes containing the starved bees were placed in racks in groups of eight. One rack at a time was placed behind the odorant delivery apparatus so that each bee's head is centered at the distal end of a horizontal plastic tube. Each bee was exposed to the 2-heptanone odorant alone for four seconds, and then while being fed an 80% sucrose solution for and additional three seconds. The sucrose solution was delivered on a piece of saturated filter paper held in forceps. […] Positive and negative responses were recorded. A positive PER was scored when a bee extended its proboscis before the sucrose appeared. In a typical trial, 48 individual bees were subjected to conditioning.
After conditioning, honeybees were tested with the candidate compounds the same day or on the following day or, most commonly, both. When held overnight, bees were fed with sucrose and kept in their holding tubes. When tested the day after training, bees were given one or more rounds of conditioning with 2-heptatone to refresh their memories. Candidate compounds stocks were made at 5% (w/v) in polyoxyethylene octyl phenyl ether (TRITON® X-100), a non-ionic detergent/surfactant, and stored at 4° C. […] Test solutions were made fresh daily by mixing stock solutions with water for a final compound concentration of 0.5%. A solution of 0.5% 2-heptanone in paraffin oil was used as a positive control.

Structure (SMILES)	Solubility in water [1]	Z-score ([2]; Z-test vs control likelihood 47.5%, alpha=10%, critical Z-score 1.282, positive = attractant, negative = repellant)	P (probability that a honeybee will return to a test dish, nP divided by n) [2]	nP (number of tests a honeybee returned to a preferred test dish) [2]	OBP2 binding characteristic of compound (OBP2)	2-heptanone positive bees testing positive to compound [3] [%]
CCCCCC(C)=O [2-heptone, 2-Heptanone, reference compound]	very slightly soluble	−2.256	0.425	217	–	–
O=C1NC(=S)SC1=Cc1ccc(N2CCOCC2)c([N+](=O)[O-])c1 [compound 86, 5-[4-(4-morpholinyl)-3-nitrobenzylidene]-2-thioxo-1,3-thiazolidin-4-one]	–	–	0.25	8	Moderate (Moderate, indicates that 50% or less of the compound bound to OBP2.)	38.1
CCc1ccc(O)c(N=Cc2cc(I)cc(I)c2O)c1 [compound 89, 2-{[(5-ethyl-2-hydroxyphenyl)imino]methyl}-4,6-diiodophenol]	–	–	0.278	5	Moderate (Moderate, indicates that 50% or less of the compound bound to OBP2.)	33.3
